Converted amounts (≈) assume the structure as drawn.
Experiments:
Type in all cases: cell-based
[1] = system: Staphylococcus aureus ATCC 6538P; assay: In vitro agar dilution MIC, organism code AA; conditions: Table 1B, unit assumed
How it was run: (§1)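 A same-class reference antibiotic with known susceptibility was run alongside as a control for test-to-test comparability. Test compound was incorporated into BHI agar at twelve successive dilutions, spot-inoculated, incubated 20-24 h at 35-37° C, and MIC scored visually.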

[2] = system: Staphylococcus aureus A5177; assay: In vitro agar dilution MIC, organism code BB; conditions: Table 1B, in µg/mL (unit assumed)
How it was run: as §1

[3] = system: Staphylococcus aureus A-5278; assay: In vitro agar dilution MIC, organism code CC; conditions: Table 1B, unit assumed
How it was run: as §1

[4] = system: Staphylococcus aureus CMX 642A; assay: In vitro agar dilution MIC, organism code DD; conditions: Table 1B, unit assumed
How it was run: as §1

[5] = system: Staphylococcus aureus NCTC10649M; assay: In vitro agar dilution MIC, organism code EE; conditions: Table 1B, unit assumed
How it was run: as §1

[6] = system: Staphylococcus aureus CMX 553; assay: In vitro agar dilution MIC, organism code FF; conditions: Table 1B, unit assumed
How it was run: as §1

[7] = system: Staphylococcus aureus 1775; assay: In vitro agar dilution MIC, organism code GG; conditions: Table 1B, unit assumed
How it was run: as §1

[8] = system: Staphylococcus epidermidis 3519; assay: In vitro agar dilution MIC, organism code HH; conditions: Table 1B, in µg/mL (unit assumed)
How it was run: as §1

[9] = system: Enterococcus faecium ATCC 8043; assay: In vitro agar dilution MIC, organism code II; conditions: Table 1B, unit assumed
How it was run: as §1

[10] = system: Streptococcus bovis A-5169; assay: In vitro agar dilution MIC, organism code JJ; conditions: Table 1B, unit assumed
How it was run: as §1

[11] = system: Streptococcus agalactiae CMX 508; assay: In vitro agar dilution MIC, organism code KK; conditions: Table 1B, unit assumed
How it was run: as §1

[12] = system: Streptococcus pyogenes EES61; assay: In vitro agar dilution MIC, organism code LL; conditions: Table 1B, unit assumed
How it was run: as §1

[13] = system: Streptococcus pyogenes 930; assay: In vitro agar dilution MIC, organism code MM; conditions: Table 1B, unit assumed
How it was run: as §1

[14] = system: Streptococcus pyogenes PIU 2548; assay: In vitro agar dilution MIC, organism code NN; conditions: Table 1B, unit assumed
How it was run: as §1

[15] = system: Micrococcus luteus ATCC 9341; assay: In vitro agar dilution MIC, organism code OO; conditions: Table 1B, unit assumed
How it was run: as §1

[16] = system: Micrococcus luteus ATCC 4698; assay: In vitro agar dilution MIC, organism code PP; conditions: Table 1B, in µg/mL (unit assumed)
How it was run: as §1

Escherichia coli JUHL = assay: In vitro agar dilution MIC, organism code QQ; conditions: Table 1B, in µg/mL (unit assumed)
How it was run: as §1

Escherichia coli SS = assay: In vitro agar dilution MIC, organism code RR; conditions: Table 1B, in µg/mL (unit assumed)
How it was run: as §1

Escherichia coli DC-2 = assay: In vitro agar dilution MIC, organism code SS; conditions: Table 1B, unit assumed
How it was run: as §1

Candida albicans CCH 442 = assay: In vitro agar dilution MIC, organism code TT; conditions: Table 1B, unit assumed
How it was run: as §1

[17] = system: Mycobacterium smegmatis ATCC 114; assay: In vitro agar dilution MIC, organism code UU; conditions: Table 1B, in µg/mL (unit assumed)
How it was run: as §1

[18] = system: Nocardia asteroides ATCC 9970; assay: In vitro agar dilution MIC, organism code VV; conditions: Table 1B, in µg/mL (unit assumed)
How it was run: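 Test compound serially diluted in Brain Heart Infusion agar across twelve plates; strains applied by Steers replicator at 1:100 dilution (1:10 for slow growers such as Streptococcus). Plates incubated 20 to 24 hours at 35-37° C. MIC taken as lowest concentration giving no growth, slight haze or sparse isolated colonies versus drug-free control.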

[19] = system: Haemophilis influenzae DILL AMP R; assay: In vitro agar dilution MIC, organism code WW; conditions: Table 1B, unit assumed
How it was run: as §1

[20] = system: Streptococcus pneumoniae ATCC 6303; assay: In vitro agar dilution MIC, organism code XX; conditions: Table 1B, unit assumed
How it was run: as §1

[21] = system: Streptococcus pneumoniae GYR 1171; assay: In vitro agar dilution MIC, organism code YY; conditions: Table 1B, unit assumed
How it was run: as §1

[22] = system: Streptococcus pneumoniae 5979; assay: In vitro agar dilution MIC, organism code ZZ; conditions: Table 1B, unit assumed
How it was run: as §1

[23] = system: Streptococcus pneumoniae 5649; assay: In vitro agar dilution MIC, organism code ZZA; conditions: Table 1B, unit assumed
How it was run: as §1

| Compound | MIC [1] [µg/mL] | MIC [2] | MIC [3] [µg/mL] | MIC [4] [µg/mL] | MIC [5] [µg/mL] | MIC [6] [µg/mL] | MIC [7] [µg/mL] | MIC [8] | MIC [9] [µg/mL] | MIC [10] [µg/mL] | MIC [11] [µg/mL] | MIC [12] [µg/mL] | MIC [13] [µg/mL] | MIC [14] [µg/mL] | MIC [15] [µg/mL] | MIC [16] | MIC (Escherichia coli JUHL) | MIC (Escherichia coli SS) | MIC (Escherichia coli DC-2) [µg/mL] | MIC (Candida albicans CCH 442) [µg/mL] | further results |
| --- | --- | --- | --- | --- | --- | --- | --- | --- | --- | --- | --- | --- | --- | --- | --- | --- | --- | --- | --- | --- | --- |
| CC[C@H]1OC(=O)C(C)(F)C(=O)[C@H](C)[C@@H](O[C@@H]2O[C@H](C)C[C@H](N(C)C)[C@H]2O)[C@](C)(OCC#CC(=O)c2ccc(Cl)nc2)C[C@@H](C)C(=O)[C@H](C)[C@H]2NC(=O)O[C@@]21C (stereo partly drawn) [Example 25] | 0.39 (≈ 0.491 µM) | 0.39 | > 100 | 0.39 (≈ 0.491 µM) | 0.78 (≈ 0.982 µM) | 0.39 (≈ 0.491 µM) | > 100 | 0.39 | 0.2 (≈ 0.252 µM) | 0.1 (≈ 0.126 µM) | 0.1 (≈ 0.126 µM) | 0.1 (≈ 0.126 µM) | 6.2 (≈ 7.81 µM) | 0.39 (≈ 0.491 µM) | 0.2 (≈ 0.252 µM) | 0.39 | > 100 | 3.1 | > 100 | > 100 | MIC [17]: 0.78; MIC [18]: 0.2; MIC [19]: 2 µg/mL (≈ 2.52 µM); MIC [20]: ≤ 4 ng/mL; MIC [21]: ≤ 4 ng/mL; MIC [22]: 0.06 µg/mL (≈ 0.0755 µM); MIC [23]: 0.06 µg/mL (≈ 0.0755 µM) |
| CC[C@H]1OC(=O)C(C)(F)C(=O)[C@H](C)[C@@H](O[C@@H]2O[C@H](C)C[C@H](N(C)C)[C@H]2O)[C@](C)(OCC#Cc2cnc3ccccc3c2)C[C@@H](C)C(=O)[C@H](C)[C@H]2NC(=O)O[C@@]21C (stereo partly drawn) [Example 26] | 0.05 (≈ 0.0639 µM) | 0.05 | > 100 | 0.05 (≈ 0.0639 µM) | 0.1 (≈ 0.128 µM) | 0.05 (≈ 0.0639 µM) | > 100 | 0.05 | 0.02 (≈ 0.0256 µM) | 0.01 (≈ 0.0128 µM) | 0.02 (≈ 0.0256 µM) | 0.02 (≈ 0.0256 µM) | 0.1 (≈ 0.128 µM) | 0.05 (≈ 0.0639 µM) | 0.02 (≈ 0.0256 µM) | 0.05 | 25 | 0.2 | 25 (≈ 32 µM) | > 100 | MIC [17]: 0.2; MIC [18]: 0.01; MIC [19]: 2 µg/mL (≈ 2.56 µM); MIC [20]: ≤ 4 ng/mL; MIC [21]: ≤ 4 ng/mL; MIC [22]: 16 µg/mL (≈ 20.5 µM); MIC [23]: 0.25 µg/mL (≈ 0.32 µM) |
| CC[C@H]1OC(=O)C(C)(F)C(=O)[C@H](C)[C@@H](O[C@@H]2O[C@H](C)C[C@H](N(C)C)[C@H]2O)[C@](C)(OCC#Cc2ccc(-c3cccs3)s2)C[C@@H](C)C(=O)[C@H](C)[C@H]2NC(=O)O[C@@]21C (stereo partly drawn) [Example 28] | 0.05 (≈ 0.061 µM) | 0.1 | > 100 | 0.1 (≈ 0.122 µM) | 0.2 (≈ 0.244 µM) | 0.1 (≈ 0.122 µM) | > 100 | 0.1 | 0.05 (≈ 0.061 µM) | 0.01 (≈ 0.0122 µM) | 0.02 (≈ 0.0244 µM) | 0.02 (≈ 0.0244 µM) | 0.78 (≈ 0.952 µM) | 0.2 (≈ 0.244 µM) | 0.02 (≈ 0.0244 µM) | 0.05 | 100 | 0.78 | 100 (≈ 122 µM) | > 100 | MIC [17]: 0.39; MIC [18]: 0.02; MIC [19]: 2 µg/mL (≈ 2.44 µM); MIC [20]: ≤ 4 ng/mL; MIC [21]: ≤ 4 ng/mL; MIC [22]: 16 µg/mL (≈ 19.5 µM); MIC [23]: 0.25 µg/mL (≈ 0.305 µM) |

Source: patent US6124269A, “2-Halo-6-O-substituted ketolide derivatives” (priority 1998, dated 2000)
